# Data: patent US4461724A, “Peptide compounds, a process for manufacturing them, pharmaceutical compositions containing them, and methods for treating ulcer and thrombus with them” (Nippon Zoki Pharmaceutical Co., Ltd., priority 1981, dated 1984)
# Square brackets hold non-standard residues; d marks the D form. Peptide text beside a SMILES is read from it. pGlu = O=C1CC[C@@H](C(=O)O)N1
# Columns and labels:
# [1] = system: Collagen Induced Hemagglutination; assay: Antithrombotic effect (I): collagen induced hemagglutination in plasma of dosed rats; type: in vivo, Wister strain male rats; conditions: collagen as coagulant; for Transmittance: mean ± S.E., control 52.5 ± 7.1
# Procedure: (§1) Groups each consisting of 10 Wister strain male rats (120-160 g) were administered with the drug to be tested through the tail vein, and 5 minutes later, blood was taken under etherized conditions at a ratio to 3.8% aqueous sodium citrate solution of 1/10. This was centrifugally separated into platelet rich plasma (PRP) and platelet poor plasma (PPP). Using ADP or collagen as the coagulant, the reaction was effected at 37° C. The transmittance of the plasma with the coagulant and drug to be tested was measured using PRP and PPP as the standards, compared with the control, and the percent inhibition was calculated. As the comparative drug, ticlopidine was orally administered.
# [2] = system: ADP Induced Hemagglutination; assay: Antithrombotic effect (I): ADP induced hemagglutination in plasma of dosed rats; type: in vivo, Wister strain male rats; conditions: ADP as coagulant; for Transmittance: mean ± S.E., control 62.9 ± 6.3
# Procedure: as §1
# [3] = system: histamine-induced ulcer in rats; assay: Histamine-induced ulcer inhibiting effect (Table 1); type: in vivo, Wister strain male rats; conditions: histamine dihydrochloride 300 mg/kg i.p., 4 hours; for Ulcer coefficient (total surface area of ulcer lesion): mean ± S.E., control 28.4 ± 3.2
# Procedure: Groups each consisting of 10 Wister strain male rats (120-130 g) were starved for 24 hours, and the drug to be tested were intravenously administered (i.v.). Immediately thereafter, according to the method by Bucher et al. [Bucher, F. et al., Beitr. Path. Anat. 81, 391 (1928)], 300 mg/kg of histamine dihydrochloride was administered intraperitoneally (i.p.). Four hours later, each animal was decapitated to bleed, and the stomach was removed. 6 ml of physiological saline was infused into the removed stomach, which was then dipped in 10% formalin for 10 minutes. Then, the stomach was incised along the greater curvature. The ulcer appeared on the stomach mucous membrane was observed on a stereoscopic microscope to measure the surface area of the ulcer lesion, and the total area was designated as the ulcer coefficient.
# [4] = system: acetic acid-induced ulcer in rats; assay: Acetic acid-induced (chronic) ulcer inhibiting effect; type: in vivo; conditions: once a day for 10 days
# Procedure: The effect of the peptide compound of this invention on chronic ulcer was examined according to the method by Takagi et al. [Takagi, K. et al., Japan J. Pharmacol., 19, 418 (1970)]. That is, 0.025 ml of 30% acetic acid was injected to the stomach serous membrane in rats, and for 10 days thereafter, the peptide compound of this invention (Compound 25) was intravenously administered once a day. Gefarnate and secretin both employed as the comparative drugs were similarly intramuscularly administered (i.m.).
# [5] = system: cysteamine-induced duodenal ulcer in rats; assay: (E) Cysteamine-induced duodenal ulcer inhibiting effect; type: in vivo; conditions: drug once before cysteamine hydrochloride 400 mg/kg
# Procedure: (§2) The peptide compound of this invention (Compound 25) and cimetidine and atropine both employed as the comparative drugs were intravenously administered.
# According to the method by Robert at al. [Robert, H. et al., Digestion, 11, 199 (1974)], 400 mg/kg of cysteamine hydrochloride was administered to rats to induce duodenal ulcer. The drug to be tested was administered once before the administration of the cysteamine.
# [6] = system: cortisone-induced ulcer in rats; assay: (D) Cortisone-induced ulcer inhibiting effect; type: in vivo; conditions: starved rats, cortisone acetate 20 mg/kg s.c. and drug once a day for 4 days
# Procedure: as §2
# According to the method by Robert et al. [Robert, A & Nezamis, J. E., Proc. Soc. Exptl. Biol. Med., 99, 443 (1958)], rats were starved, and 20 mg/kg of cortisone acetate was subcutaneously administered once a day for 4 days to induce ulcer. The drug to be tested was also administered simultaneously with the cortisone acetate once a day for 4 days.
# [7] = system: histamine-induced ulcer in rats; assay: (C) Histamine-induced ulcer inhibiting effect (ID50); type: in vivo; conditions: drug once before histamine 300 mg/kg
# Procedure: 4. […] According to the method by Bucher et al. [ Bucher, F. et al., Beitr. Path. Anat., 81, 391 (1928)], the drug to be tested was intraperitoneally administered to rats once before the oral administration of 300 mg/kg of histamine.
# [8] = system: aspirin-induced ulcer in rats; assay: (B) Aspirin-induced ulcer inhibiting effect; type: in vivo; conditions: drug once before oral aspirin 200 mg/kg
# Procedure: 4. […] According to the method by Brodie et al. [Brodie, D. A. & Chase, B. J., Gastroenterology, 53, 604 (1967)], the drug to be tested was orally administered to rats once before the oral administration of 200 mg/kg of aspirin.
# [9] = system: restraint and water immersion stress ulcer in rats; assay: (A) Restraint and water immersion stress ulcer inhibiting effect; type: in vivo; conditions: stress 25° C., 4 hours, drug once before stress
# Procedure: as §2
# According to the method by Takagi et al. [Takagi, K. et al., Chem. Pharm. Bull., 12, 465 (1964)], the effect on the ulcer in rats induced by stress due to restraint and immersing in water in wire cages (25° C., 4 hours) was examined. The drugs to be tested were administered once before loading the stress.
# [10] = system: thrombus on silk thread in extracorporeal shunt of rats; assay: Antithrombotic effect (II): extracorporeal shunt with silk thread, thrombus wet weight; type: in vivo, Wister strain male rats; conditions: 20 minute circulation; for Thrombosis wet weight: mean ± S.E., control 38.1 ± 3.4
# Procedure: The present pharmacological test was conducted according to the method by T. Umetsu et al. [Thrombosis and Haemostasis, 39, 74-83 (1978)]. Groups each consisting of 10 Wister strain male rats were anesthetized by intraperitoneal administration of 50 mg/kg of sodium pentobarbital. An extracorporeal shunt prepared by connecting cannula polyethylene tubes to both ends of a polyethylene tube into which a silk thread had been inserted was filled with heparin, the both ends were then inserted into the dissected and exposed left jugular vein and right carotid artery. Thereafter, blood circulation was started. The drug to be tested was intravenously administered one minute before the start of blood circulation. Aspirin was orally administered as a comparative drug. After 20 minute blood circulation, the wet weight of the thrombus coated to the silk thread was weighed, and the inhibition rate was calculated.
# [11] = system: pylorus ligation ulcer in rats; assay: Pylorus ligation ulcer inhibiting effect; type: in vivo, Wister strain male rats; conditions: 1 mg/kg i.p., 18 hours after pylorus ligation, mean ± S.E., control 4.5 ± 0.3
# Procedure: Groups each consisting of 10 Wister strain male rats were starved for 24 hours, and the pylorus was ligatured under etherized conditions. The peptide compound of this invention (Compound 25) was intraperitoneally administered. Eighteen hours later, the stomach was removed and cut open. The ulcer appeared on the rumen was evaluated using 6-ranked ulcer index according to the method by Narumi et al. [A. Narumi, et al., J. Takeda Res. Lab., 29, 85 (1970)].
# [12] = 10 mg/kg via tail vein, blood taken 5 minutes later
# [13] = 1 mg/kg i.v. one minute before circulation
# [14] = 10 mg/kg i.v. one minute before circulation
compound,measurement,setting,value
"Clc1ccccc1CN1CCc2sccc2C1 [Thichlopidine, ticlopidine]",inhibition at 100 mg/kg,"[1]; Rattus norvegicus, po, 100 mg/kg orally, read-out: Inhibition rate (%)",34.1%
same,Transmittance,[1]; 100 mg/kg orally,34.6 ± 10.8
same,Transmittance,[2]; 100 mg/kg orally,41.6 ± 10.4
same,inhibition at 100 mg/kg,"[2]; Rattus norvegicus, po, 100 mg/kg orally, read-out: Inhibition Rate (%)",33.9%
"NCCCC[C@H](NC(=O)[C@H](Cc1c[nH]cn1)NC(=O)[C@H](CO)NC(=O)[C@@H]1CCC(=O)N1)C(=O)O [Compound 28, (pyr)Glu-Ser-His-Lys] ([pGlu]SHK-OH)",Inhibition rate (%),[2]; [12],57.9%
same,Transmittance,[2]; [12],26.5 ± 7.2
same,Inhibition rate (%),[3]; 20 mg/kg i.v.,57.0%
same,Ulcer coefficient (total surface area of ulcer lesion),[3]; 20 mg/kg i.v.,12.2 ± 2.6
CC(C)=CCC/C(C)=C/CC/C(C)=C/CCC(=O)OC/C=C(\C)CCC=C(C)C [Gefarnate],ID50 acetic acid-induced ulcer,[4]; intramuscular,"250 mg/kg, i.m."
"CN/C(=N/CCSCc1nc[nH]c1C)NC#N [Cimetidine, cimetidine]",ID50 (E) cysteamine-induced duodenal ulcer,[5],"26.0 mg/kg, i.v."
same,ID50 (D) cortisone-induced ulcer,[6],"28.0 mg/kg, i.v."
same,ID50 (C) histamine-induced ulcer,[7],"17.0 mg/kg, i.v."
same,ID50 (B) aspirin-induced ulcer,[8],"39.0 mg/kg, i.v."
same,Ulcer coefficient (total surface area of ulcer lesion),[3]; 25 mg/kg i.v.,10.9 ± 1.9
same,inhibition at 25 mg/kg,"[3]; Rattus norvegicus, 25 mg/kg i.v., read-out: Inhibition rate (%)",61.6%
same,ID50 (A) restraint and water immersion stress ulcer,[9],"37.0 mg/kg, i.v."
secretin,ID50 acetic acid-induced ulcer,[4]; intramuscular,"> 100 U/kg, i.m."
CC(=O)Oc1ccccc1C(=O)O [Aspirin],Thrombosis wet weight,[10]; 100 mg/kg orally,22.3 ± 3.2 mg
same,inhibition at 100 mg/kg,"[10]; Rattus norvegicus, po, 20 min, 100 mg/kg orally, read-out: Inhibition rate (%)",41.5%
"NCCCC[C@H](NC(=O)[C@H](Cc1c[nH]cn1)NC(=O)[C@H](CO)NC(=O)CN)C(=O)O [Compound 25, Gly-Ser-His-Lys.CH3 COOH.H2 O] (H-GSHK-OH)",Ulcer index (6-ranked),[11],3.1 ± 0.5
same,ID50 (E) cysteamine-induced duodenal ulcer,[5],"5.0 mg/kg, i.v."
same,Transmittance,"[1]; 10.0 mg/kg via tail vein, 10 mg/kg",14.8 ± 4.9
same,Inhibition rate (%),[1]; 10 mg/kg,71.8%
same,ID50 acetic acid-induced ulcer,[4]; intravenous,"1.0 mg/kg, i.v."
same,Inhibition rate (%),[10]; [13],27.3%
same,Thrombosis wet weight,[10]; [13],27.7 ± 4.0 mg
same,Inhibition rate (%),[10]; [14],44.1%
same,Thrombosis wet weight,[10]; [14],21.3 ± 3.3 mg
same,ID50 (D) cortisone-induced ulcer,[6],"1.85 mg/kg, i.v."
same,ID50 (C) histamine-induced ulcer,[7],"6.0 mg/kg, i.v."
same,ID50 (B) aspirin-induced ulcer,[8],"5.0 mg/kg, i.v."
same,Inhibition rate (%),[3]; 20 mg/kg i.v.,79.9%
same,Ulcer coefficient (total surface area of ulcer lesion),[3]; 20 mg/kg i.v.,5.7 ± 2.6
same,ID50 (A) restraint and water immersion stress ulcer,[9],"4.2 mg/kg, i.v."
"CN1[C@@H]2CC[C@H]1C[C@@H](OC(=O)C(CO)c1ccccc1)C2 (stereo partly drawn) [Atropine, atropine]",ID50 (E) cysteamine-induced duodenal ulcer,[5],"0.35 mg/kg, i.v."
same,ID50 (D) cortisone-induced ulcer,[6],"0.25 mg/kg, i.v."
same,ID50 (C) histamine-induced ulcer,[7],"0.35 mg/kg, i.v."
same,ID50 (B) aspirin-induced ulcer,[8],"0.52 mg/kg, i.v."
same,ID50 (A) restraint and water immersion stress ulcer,[9],"0.4 mg/kg, i.v."
